Test results: PMC5089653, “Isoxazole‐Derived Amino Acids are Bromodomain‐Binding Acetyl‐Lysine Mimics: Incorporation into Histone H4 Peptides and Histone H3” (Angewandte Chemie (International Ed. in English), 2016)
Like-named read-outs stand apart in the source and are kept apart here.

Columns and labels:
[1] = biological target: T1, BRD4(1) (Homo sapiens, UniProt O60885); assay: AlphaScreen assay inhibiting the interaction of BRD4(1) with biotinylated H4(KAc)4; assay type: binding; conditions: for Percentage inhibition of bromodomain-KAc recognition, BRD4(1), H4(KAc)4 / inhibition at 0.004 µM: AlphaScreen, average of triplicate, BRD4(1) 10 nM, biotin-H4(KAc)4 4 nM
T1 construct: the phylogenetically diverse BAZ2A, BRD4(1), and BRD9 bromodomains; His tag (pNIC28-Bsa4 vector; purified on HisTrap) (N); made in house; host or cells: E. coli BL21 (DE3) Gold
From the text: (§1) Supporting Table S1: Percentage inhibition of bromodomain-KAc recognition by isoxazole-containing amino acids.
(§2) Inhibitory values of unprotected amino acids given as average percentage inhibition (buffer […]
(§3) measurements in triplicate (AlphaScreen). n.d. value not determined. Inhibition values highlighted as a heatmap from green (low inhibition) to red (high inhibition). […]
(§4) Protein expression and purification: bromodomain-containing constructs in pNIC28-Bsa4 vector backbones were transformed into E. coli BL21 (DE3) Gold cells. Flasks containing […]
(§5) starter culture. Flasks (2000 mL PYREX® narrow-mouth graduated Erlenmeyer flasks or plastic baffled flasks) were incubated at 37 °C and 180 rpm in an Innova® 44 shaker (New Brunswick Scientific). When OD600 reached 0.8-1.0, the temperature was lowered to 18 °C and IPTG was added to a final concentration of 0.25 mM to induce protein expression.
(§6) Cultures were incubated at 18 °C overnight, after which time cultures were harvested by centrifugation in a JA10 rotor in an Avanti J25 centrifuge (Beckman CoulterTM) at 8000 rpm for 15 min at 4 °C. The resulting pellet was weighed and stored in a sealable plastic bag at - 80 °C. Proteins were purified with a 3 mL HisTrapTM chromatography column (GE Healthcare), and Superdex 75 XK 16/600 gel filtration column (GE Healthcare) using standard

[2] = biological target: T2, BAZ2A (Homo sapiens, UniProt Q9UIF9); assay: AlphaScreen single shot screening, BAZ2A with biotin-H3K14Ac peptide; assay type: binding; conditions: amino acid 50 μM as headed in Table 1 (supplement: 25 µM), average of triplicate, BAZ2A 25 nM, biotin-H3 5-24 KAc14 50 nM, read-out: Percentage inhibition of bromodomain-KAc recognition, BAZ2A, H3K14Ac
T2 construct: the phylogenetically diverse BAZ2A, BRD4(1), and BRD9 bromodomains; Structural Genomics Consortium (Oxford)
T2 sequence (Q9UIF9 1793-1897 limits assumed): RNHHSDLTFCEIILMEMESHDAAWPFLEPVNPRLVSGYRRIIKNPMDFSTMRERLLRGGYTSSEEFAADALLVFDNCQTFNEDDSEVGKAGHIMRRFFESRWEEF

[3] = biological target: T2, BAZ2A; assay: as above; assay type: binding; conditions: average of triplicate, BAZ2A 25 nM, biotin-H3 5-24 KAc14 50 nM, read-out: Percentage inhibition of bromodomain-KAc recognition, BAZ2A, H3K14Ac; for inhibition at 250 µM: amino acid 250 μM, <0.5% DMSO
From the text: as §1, §2, §3, §4, §5
as §6, with “Healthcare), and Superdex 75 XK 16/600 gel filtration column (GE Healthcare) using standard” left out
(§7) AlphaScreen assay: AlphaScreen buffer (25 mM HEPES, 100 mM NaCl, 0.05% w/v CHAPS, 0.1% w/v BSA; pH 7.6) was prepared fresh each day, filter sterilization through a 0.22 µm filter, and stored at 4 °C, with equilibration to room temperature before use. Single shot screening against BAZ2A and BRD9A was carried out by the Structural Genomics Consortium (Oxford) as described previously.[12] Biotinylated peptides employed and final assay […]
(§8) biotin-H35-24KAc14 50 nM. Amino acids were tested at 25 µM and 250 µM with <0.5% DMSO.

[4] = biological target: T3, BRD9 (Homo sapiens, UniProt Q9H8M2); assay: AlphaScreen single shot screening, BRD9 with biotin-H2A(KAc)3 peptide; assay type: binding; conditions: amino acid 50 μM as headed in Table 1 (supplement: 25 µM), average of triplicate, BRD9 40 nM, biotin-H2A 1-21 KAc9KAc13KAc15 25 nM, read-out: Percentage inhibition of bromodomain-KAc recognition, BRD9, H2(KAc)3
T3 construct: the phylogenetically diverse BAZ2A, BRD4(1), and BRD9 bromodomains; Structural Genomics Consortium (Oxford)
T3 sequence (Q9H8M2 136-240 limits assumed): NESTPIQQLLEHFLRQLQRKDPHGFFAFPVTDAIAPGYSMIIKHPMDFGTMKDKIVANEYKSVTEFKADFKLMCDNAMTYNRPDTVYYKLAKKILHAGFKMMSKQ

[5] = biological target: T3, BRD9; assay: as above; assay type: binding; conditions: average of triplicate, BRD9 40 nM, biotin-H2A 1-21 KAc9KAc13KAc15 25 nM, read-out: Percentage inhibition of bromodomain-KAc recognition, BRD9, H2(KAc)3; for inhibition at 250 µM: amino acid 250 μM, <0.5% DMSO; for inhibition at 25 µM: amino acid 50 μM as headed in Table 1 (supplement: 25 µM)
From the text: as §1, §2, §3, §4, §5
as §6, with “Healthcare), and Superdex 75 XK 16/600 gel filtration column (GE Healthcare) using standard” left out
as §7, §8

[6] = system: bromodomain of BRDT; conditions: KAc mimics containing MTCTK; cited from earlier work
From the text: Lysine acetylation is a prevalent post‐translational modification (PTM) which plays a fundamental role in regulating protein function.1, 2 Although acetylated lysine (KAc) residues are found throughout the cellular environment,3, 4, 5 it is the role of this PTM in chromatin function which has garnered most recent interest.6 KAc is viewed as one of the “marks” that comprises the epigenetic code,7, 8 and enzymes that write (histone acetyl transferases) and erase (histone deacetylases) this modification are well characterized.9 Neutralization of lysine's positive charge by acetylation weakens the ...

[7] = amino acid 250 μM, buffer blank 0%, 25% DMSO 100% inhibition
[8] = read-out: Percentage inhibition of bromodomain-KAc recognition, BRD4(1), H4(KAc)4, amino acid 50 μM
[9] = read-out: Percentage inhibition of bromodomain-KAc recognition, BRD4(1), H4(KAc)4, amino acid 250 μM, buffer blank 0%, 25% DMSO 100% inhibition

SMILES | inhibition at 0.004 µM [1, 8] [%] | inhibition at 0.004 µM [1, 9] [%] | inhibition at 250 µM [3] [%] | inhibition at 250 µM [5] [%] | inhibition [3] [%] | inhibition at 25 µM [5] [%] | further results
CC(=O)NCCCC[C@H](N)C(=O)O [KAc, reference compound] | – | – | – | – | – | – | Percentage inhibition of bromodomain-KAc recognition, BRD4(1), H4(KAc)4 ([1]; amino acid 50 μM): 4.6%
Cc1noc(C)c1-c1cc(O)cc(C(O)c2ccccc2)c1 (stereo not drawn) [compound 2, reference compound] | – | – | – | – | – | – | inhibition by positive control ([1]; included on each plate of the amino acid screen as a positive control, in every case, concentration not given): 100%
Cc1cc(CCC[C@H](N)C(=O)O)on1 [compound 3, (S)-2-Amino-5-(3-methylisoxazol-5-yl)pentanoic acid] | – | – | – | – | – | – | Percentage inhibition of bromodomain-KAc recognition, BRD4(1), H4(KAc)4 ([1]; amino acid 50 μM): 2.3%; Percentage inhibition of bromodomain-KAc recognition, BRD4(1), H4(KAc)4 [1, 7]: 16.4%
Cc1cc(COC[C@H](N)C(=O)O)on1 [compound 4] | 0.6 | 10.3 | – | – | – | – | –
Cc1cc(C(=O)NC[C@H](N)C(=O)O)on1 [compound 5, (S)-2-Amino-3-(3-methylisoxazole-5-carboxamido)propanoic acid] | – | – | 98.7 | 73.6 | – | – | inhibition at 50 µM [2]: 58.1%; Percentage inhibition of bromodomain-KAc recognition, BRD4(1), H4(KAc)4 ([1]; amino acid 50 μM): 2.5%; Percentage inhibition of bromodomain-KAc recognition, BRD4(1), H4(KAc)4 [1, 7]: 31.2%; inhibition at 50 µM [4]: 28.6%
CSC(=O)NCCSC[C@H](N)C(=O)O [compound 7, methylthiocarbonylthialysine] | – | – | – | – | – | – | interaction with the bromodomain of BRDT compared to KAc [6]: two‐ to fourfold less efficiently
Cc1noc(C)c1-c1cccc(C[C@H](N)C(=O)O)c1 [compound 8] | 18.3 | > 70 | 45.3 | 0.5 | 5.8 | -7.7 | Percentage inhibition of bromodomain-KAc recognition, BRD4(1), H4(KAc)4 [1, 7]: 76.3%
Cc1noc(C)c1-c1ccc(C[C@H](N)C(=O)O)cc1 [compound 9] | 22.7 | 45.8 | 28.1 | 66.5 | 2.6 | -1.7 | –
Cc1noc(C)c1NC(=O)CC[C@H](N)C(=O)O [compound 10, N5-(3,5-Dimethylisoxazol-4-yl)-L-glutamine] | 4.1 | 7.5 | 25.1 | -3.1 | 1.4 | -4.8 | –
Cc1cc(CNC(=O)C[C@H](N)C(=O)O)on1 [compound 11] | 4.7 | 18.5 | 53.8 | -0.1 | 1.9 | -8.1 | –
Cc1noc(C)c1NC(=O)C[C@H](N)C(=O)O [compound 12] | 1.3 | 23.5 | 66.9 | 12.6 | 10.5 | -2.1 | –
Cc1cc(NC(=O)C[C@H](N)C(=O)O)no1 [compound 13] | 0.9 | 26.3 | 96.1 | 47.9 | 12.6 | -1 | –
Cc1cc(NC(=O)C[C@H](N)C(=O)O)on1 [compound 14] | – | – | 84.3 | 14.6 | 14.5 | 1.4 | –
